Reference: patent US9486491B2, “Collagen peptide composition production method, DPP-4 inhibitor, and antihyperglycemic agent” (Nippi, Incorporated, priority 2012, dated 2016)
In brackets after ≈: the same amount, converted by molar mass. Non-standard residues stand in square brackets, D forms with d. Residues, ends and D or L forms follow the SMILES beside them. No end group written: not given here. Hyp = O=C(O)[C@@H]1C[C@@H](O)CN1

Target: T1, DPP-4 (derived from porcine kidney) (Sus scrofa, UniProt P22411)
T1 construct: purchased Sigma; host or cells: porcine kidney (tissue-derived enzyme)
T1 sequence (P22411 whole entry): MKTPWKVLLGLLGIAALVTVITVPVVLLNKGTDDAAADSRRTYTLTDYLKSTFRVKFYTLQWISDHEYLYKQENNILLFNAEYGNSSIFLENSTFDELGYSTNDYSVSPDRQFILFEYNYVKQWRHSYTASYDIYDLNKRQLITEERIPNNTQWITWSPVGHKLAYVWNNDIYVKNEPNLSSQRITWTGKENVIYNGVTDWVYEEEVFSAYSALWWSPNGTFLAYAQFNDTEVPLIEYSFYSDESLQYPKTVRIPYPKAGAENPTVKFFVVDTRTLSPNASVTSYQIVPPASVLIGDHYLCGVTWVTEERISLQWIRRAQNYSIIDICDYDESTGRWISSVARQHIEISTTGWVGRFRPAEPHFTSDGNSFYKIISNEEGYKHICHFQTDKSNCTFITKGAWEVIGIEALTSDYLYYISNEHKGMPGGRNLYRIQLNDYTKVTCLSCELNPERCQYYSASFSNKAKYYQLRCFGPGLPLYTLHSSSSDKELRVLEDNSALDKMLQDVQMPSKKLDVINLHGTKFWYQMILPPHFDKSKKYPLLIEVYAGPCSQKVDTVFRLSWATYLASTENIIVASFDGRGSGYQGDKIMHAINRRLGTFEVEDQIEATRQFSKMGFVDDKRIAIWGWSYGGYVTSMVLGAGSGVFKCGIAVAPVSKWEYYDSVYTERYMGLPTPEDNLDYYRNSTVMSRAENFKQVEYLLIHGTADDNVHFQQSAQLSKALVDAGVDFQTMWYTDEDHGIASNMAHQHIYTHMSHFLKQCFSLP
Assay: DPP-4 inhibition rate / IC50 value measurement (Gly-Pro-MCA fluorescence)
Assay type: biochemical
Conditions: individual oligopeptides
Method: Thirty-five μl of sample solution obtained by dissolving a sample in 50 mM tris-hydrochloric acid buffer (pH 7.5) and 15 μl of DPP-4 (manufactured by Sigma, derived from porcine kidney; 8.6 mU/ml) that was dissolved in 50 mM tris-hydrochloric acid buffer (pH 7.5) were mixed in a microtiter plate well (manufactured by NUNC, trade name “237015”) and incubated at 37° C. for 10 minutes.
To this, 50 μl of substrate solution (obtained by dissolving glycylproline-4-methylcoumarin-7-amide (Gly-Pro-MCA) in 50 mM tris-hydrochloric acid buffer (pH 7.5) at 10 μM) kept at 37° C. in advance was added and mixed to react at 37° C. for 20 minutes.
The fluorescence intensity of 7-amino-4-methylcoumarin (AMC) released by DPP-4 was measured with time using a microplate reader-type fluorescence detector (manufactured by Corona Electric Co., Ltd., trade name “SH-9000”). As for the wavelength used for the measurement, the excitation wavelength was 380 nm and the measurement wavelength was 460 nm Instead of sample, 50 mM tris-hydrochloric acid buffer (pH 7.5) in an identical amount was employed as a control and the fluorescence intensity thereof was measured.
The activity of DPP-4 was expressed in an average gradient of change in the amount of fluorescence intensity during a reaction time. As for a DPP-4 inhibition rate, difference was calculated by, with the control as 100%, subtracting the activity of sample from the above-mentioned control to use as the inhibition rate (%).
According to the above method of measuring the DPP-4 inhibition rate, a 50% inhibitory concentration (IC50 value) of the DPP-4 activity in terms of one ml of reaction system was calculated by using the inhibition rates obtained by changing the concentration of sample.

Molecule	IC50 value [µg/mL]
GPIGPV [GlyProIleGlyProVal]	5
CC(C)C[C@H](N)C(=O)N1C[C@H](O)C[C@H]1C(=O)NCC(=O)N1CCC[C@H]1C(=O)N[C@@H](C)C(=O)O [LeuHypGlyProAla] (H-L[Hyp]GPA-OH; N-terminus and C-terminus assumed)	390 (≈ 831 µM)
CC(C)C[C@H](N)C(=O)N1C[C@H](O)C[C@H]1C(=O)NCC(=O)O [LeuHypGly] (H-Leu-[Hyp]-Gly-OH; N-terminus and C-terminus assumed)	39 (≈ 129 µM)
C[C@H](N)C(=O)N1C[C@H](O)C[C@H]1C(=O)NCC(=O)O [AlaHypGly] (H-Ala-[Hyp]-Gly-OH; N-terminus and C-terminus assumed)	2450 (≈ 9450 µM)
CC[C@H](C)[C@H](N)C(=O)N1C[C@H](O)C[C@H]1C(=O)NCC(=O)O [IleHypGly] (H-Ile-[Hyp]-Gly-OH; N-terminus and C-terminus assumed)	150 (≈ 498 µM)

Test system: not listed separately
Assay: Glucose tolerance test in mice, blood glucose level
Assay type: in vivo, C57BL/6J male mice
Conditions: 3 mg/kg oral one hour before glucose; 15 minutes after the administration of glucose
Method: (1) Twenty-five C57BL/6J male mice at an age of eight weeks (Charles River Laboratories Japan) were subjected to habituation breeding for one week. For seven days prior to a glucose tolerance test, each mouse was given 0.25 ml of distilled water to acclimate to oral administration.
(2) On the day before the glucose tolerance test, the mouse was fasted except for water for 18 hours starting at 16 o'clock. […] The five groups consist of a positive control group, collagen peptide composition administered groups (400 mg/kg, 1000 mg/kg, and 2000 mg/kg), and a negative control group.
(i) The positive control group was orally administered sitagliptin (manufactured by MSD, Januvia) at 3 mg/kg one hour before administration of 20 w/v % glucose aqueous solution.
(ii) The collagen peptide composition administered groups were orally administered the above peptide powder dissolved in distilled water to be a dose of 400 mg/kg, 1000 mg/kg, or 2000 mg/kg 15 minutes before the administration of glucose.
(iii) The negative control group was orally administered 20 ml/kg of distilled water 15 minutes before the administration of glucose.
(3) The glucose was administered. […]
(4) After the administration of glucose, the blood was drawn from the tail at 15, 30, 60, and 120 minutes; and the blood glucose level was measured using a simple blood glucose measuring instrument (manufactured by Arkray Factory, GT-164). […]

Molecule	blood glucose level [mg/dL]
N[C@@H](CC(=O)N1CCn2c(nnc2C(F)(F)F)C1)Cc1cc(F)c(F)cc1F [sitagliptin]	220
